Measurements published in US20240316064A1, “USE OF ESTRETOL AS A TREATMENT FOR ENDOMETRIOSIS” (UNIVERSIDAD BERNANDO O'HIGGINS, priority 2021, published 2024).

Columns and labels:
11Z cells = experiment: Wound (scratch) migration assay, 11Z cells; assay type: cell-based; settings: estetrol 10^−6, any time point studied
Procedure: (§1) FIG. 1. Evaluation of apoptosis, cell viability and migration after treatments with E2 and E4 in endometriotic cells. (A) Western blot analysis against PARP and β-actin after 24 h incubation (B) MTS assay after 24 h incubation (C) Scratch assay.

PRA = PRA protein levels by Western blot in endometriotic cells
Hs832 stromal cell line [1] = experiment: PARP cleavage rate (apoptosis), Western blot, Hs832 cells; assay type: cell-based; settings: 24 h incubation, almost all estetrol concentrations (except 108M)
Procedure: (§2) FIG. 1. […] (A) Western blot analysis against PARP and β-actin after 24 h incubation (B) MTS assay after 24 h incubation (C) Scratch assay. […] The experiments were performed on 2 cell lines, Hs832, endometrial stromal cells and 11Z cells, endometrial epithelium cells.

[2] = test system: genes associated with the progesterone signaling pathway; experiment: PCR array for progesterone-regulated genes in Hs832 cells; assay type: cell-based; settings: 24 h E4 (10^−6M) then 6h pulse with P4 (10^−7M), versus P4 without pre-treatment; for expression of PTGER2, NF1, MUC1, TWIST1 and SNAI1: change to a lesser extent
Procedure: FIG. 4. PCR Array Analysis for Progesterone-Regulated Genes in Endometrial Cells, Hs832 Cells. The expression of genes regulated by progesterone (P4) is compared, when incubating with P4 without previous treatment or with a 24 hour treatment with Estetrol.
Procedure: Hs832 endometriosis cells were incubated for 24 h with E4 (10^−6M) or vehicle (ethanol) as a control, then both cells received a 6h pulse with P4 (10^−7M) to then extract their messenger RNA in order to evaluate the levels. expression of 24 genes associated with the progesterone signaling pathway.

PRB = PRB protein levels by Western blot in endometriotic cells; assay type: cell-based
ERα = ERα protein levels by Western blot in endometriotic cells; assay type: cell-based; settings: most of the concentrations used
Hs832 stromal cell line [3] = experiment: MTS cell viability assay, Hs832 cells; assay type: cell-based; settings: 24 h, all estetrol concentrations tested
Procedure: as §1
(§3) To assess cell viability, the MTS assay was performed after 24 h.

ER β = experiment: ERβ protein levels by Western blot in endometriotic cells; assay type: cell-based
11Z epithelial cells [4] = experiment: MTS cell viability assay, 11Z cells; assay type: cell-based; settings: 24 h, all estetrol concentrations tested
Procedure: as §1, §3

Hs832 cells = experiment: Wound (scratch) migration assay, Hs832 cells; assay type: cell-based; settings: Hs832, estetrol 10^−6, any time point studied
Procedure: as §1

ERα/ERβ ratio = ERα/ERβ ratio of protein levels in endometriotic cells; assay type: cell-based; settings: versus control and estradiol conditions
11Z epithelial cells [5] = experiment: PARP cleavage rate (apoptosis), Western blot, 11Z cells; assay type: cell-based; settings: 24 h incubation, most estetrol and estradiol concentrations
Procedure: as §2

Compound: C[C@]12CC[C@@H]3c4ccc(O)cc4CC[C@H]3[C@@H]1[C@@H](O)[C@@H](O)[C@@H]2O [estetrol]
- migration (wound assay) (11Z cells): showed no difference from the control
- PRA protein levels over β-actin (PRA; 11Z, estetrol 10^−9/10^−8M): increase
- PRA protein levels over β-actin (PRA; Hs832, estetrol 10^−5M): increase
- PRA protein levels over β-actin (PRA; HsS32, estetrol 10^−9/10^−7M): decreased
- PARP cleavage rate (apoptosis) (Hs832 stromal cell line [1]): significant decrease
- decrease of expression of FGF12, GCFC2, PWP1, ITGA6, ZEB1, POSTN and FKBP25 [2]: to a lesser extent
- expression of NFIX, GNRFI1, ESR1, MEF2D and I HH [2]: stimulating the expression
- expression of PRL, SNAI2, RAD54L, HES1, ABCG2, TCF4 [2]: strongly decreasing
- expression of PTGER2, NF1, MUC1, TWIST1 and SNAI1 [2]: increase
- expression of PTGER2, NF1, MUC1, TWIST1 and SNAI1 ([2]; listed as E4): increases
- expression of PRL, SNAI2, RAD54L, HES1, ABCG2, TCF4 ([2]; listed as E4): strongly decreases
- PRB protein levels over β-actin (PRB; 11Z cells, estetrol, all concentrations used): more consistent increase
- PRB protein levels over β-actin (PRB; HsS32, estetrol 10^−6/10^−5M): more consistent increase
- ERα levels over β-actin (ERα; 11Z, estetrol): robust increase
- ERα levels over β-actin (ERα; Hs832, estetrol): robust increase
- changes in cell viability compared to controls (MTS) (Hs832 stromal cell line [3]): None of the estetrol concentrations tested showed changes
- ER protein levels (ER β levels over β-actin, FIG. 2B) (ER β; 11Z, estetrol, most concentrations used): reduced levels
- ER protein levels (ER β levels over β-actin, FIG. 2B) (ER β; Hs832, estetrol, all conditions): reduced levels
- changes in cell viability compared to controls (MTS) (11Z epithelial cells [4]): None of the estetrol concentrations tested showed changes
- migration (wound assay) (Hs832 cells): showed no difference from the control
- ERα/ERβ ratio (ERα/ERβ ratio; 11Z cells, estetrol 10^−7/10^−6/10^−5M): significantly increases
- ERα/ERβ ratio (ERα/ERβ ratio; Hs832 cells, estetrol 10^−9/10^−7M): significantly increases
- PARP cleavage rate (apoptosis) (11Z epithelial cells [5]): apoptosis was reduced
